The values below are quoted from earlier work in patent US12697342B2, “Non-surgical prevention of boar taint and aggressive behavior” (priority 2022, dated 2026).

In the data set the test system is Sertoli cells. The following applies: young male pigs.

As for `C[C@]12CC[C@@H]3c4ccc(O)cc4C[C@@H](CCCCCCCCC[S+]([O-])CCCC(F)(F)C(F)(F)F)[C@H]3[C@@H]1CC[C@@H]2O` (some centres unmarked) [ICI 182,780], the “duration of Sertoli cell proliferation and testis size” value is “highly significant increase”.
Consider `N#Cc1ccc(C(c2ccc(C#N)cc2)n2cncn2)cc1` [Letrozole], for which the “duration of Sertoli cell proliferation and testis size” value is recorded as “highly significant increase”.
